Patent US20070111118A1, “Electrophotographic photoconductor and image-forming apparatus” (priority 2005, published 2007)

Experiment: Solubility of the hole-transfer agent in triglyceride oleate
Format: physicochemical
Settings: 25° C., g per 100 g of triglyceride oleate
Description: Here, the term “solubility in triglyceride oleate (% by weight)” means the amount of a solvent (hole-transfer agent) (g) with reference to 100 g of triglyceride oleate.

Row | HTM Solubility | SMILES
1 | 2.1 w % | CCc1cccc(C)c1N(c1ccccc1)c1ccc(/C=C/c2ccc(/C=C/c3ccc(N(c4ccccc4)c4c(C)cccc4CC)cc3)cc2)cc1 [HTM-8]
2 | 37.0 w % | Cc1ccccc1N(c1ccc(-c2ccc(N(c3ccccc3C)c3ccccc3/C=C/c3ccccc3)cc2)cc1)c1ccccc1/C=C/c1ccccc1 [HTM-9]
3 | 11.1 w % | CC(C)c1ccc(N(c2ccccc2)c2cccc(N(c3ccccc3)c3ccc(C(C)C)cc3)c2)cc1 [HTM-1]

Row | SMILES | HTM Solubility
4 | CCCCc1ccc(N(c2ccc(C)cc2)c2c(N(c3ccc(C)cc3)c3ccc(CCCC)cc3)c3ccccc3c3ccccc23)cc1 [HTM-10] | 2.8 w %
